melting point [°C]	Compound
163	CNC(=O)C(NC(=O)c1ccc(F)cc1C(F)(F)F)C(O)CO (stereo not shown) [Compound 3.8, 2-(4-Fluoro-2-trifluoromethylbenzoylamino)-3,4-dihydroxy-N-methylbutyramide]
163	C=CC(O)C(NC(=O)c1ccc(F)cc1C(F)(F)F)C(=O)NC (racemic) [Compound 3.3, N-(2-Hydroxy-1-methylcarbamoylbut-3-enyl)-4-fluoro-2-trifluoromethylbenzamide]
212	CNC(=O)C(NC(=O)c1ccc(F)cc1C(F)(F)F)C(O)C(F)(F)F (racemic) [Compound 3.1, 4-Fluoro-N-(3,3,3-trifluoro-2-hydroxy-1-methylcarbamoylpropyl)-2-trifluoromethylbenzamide]
140	CNC(=O)C(NC(=O)c1ccc(F)cc1C(F)(F)F)C(O)/C(Cl)=C/c1ccccc1 (racemic) [Compound 3.7, N-(3-Chloro-2-hydroxy-1-methylcarbamoyl-4-phenylbut-3-enyl)-4-fluoro-2-trifluoromethylbenzamide]

Source: patent publication US7786046B2, “Benzoyl-substituted serineamides” (BASF Aktiengesellschaft, priority 2005, dated 2010)
